The values below come from US20250019387A1 (Frontier Medicines Corporation, priority 0001, published 2025).

The term IC50 denotes the concentration that inhibits the measured activity by half.

KRAS G12C and cRAF (Ras-binding domain) interaction, sequence (P01116 other isoform, or with tags, fused parts or gaps G12C/C51S/C80L/C118S): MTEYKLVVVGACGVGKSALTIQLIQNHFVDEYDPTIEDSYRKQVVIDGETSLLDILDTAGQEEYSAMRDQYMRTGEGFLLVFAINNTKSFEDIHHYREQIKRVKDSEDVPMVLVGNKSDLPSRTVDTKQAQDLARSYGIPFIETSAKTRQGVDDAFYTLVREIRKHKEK

This assay has as its target KRAS G12C and cRAF (Ras-binding domain) interaction (Homo sapiens (Human), UniProt P01116, C118S/C51S/C80L/G12C). Kind of assay: Inhibition of KRAS G12C and cRAF binding (AlphaScreen). The settings on record: additional exemplary compounds; KRAS G12C and cRAF binding; read-out: RAF1 RBD IC50. The protocol:
Compounds were diluted in 100% DMSO and each compound concentration was spotted at 200 nl/well onto low volume, white 384 well plates. […] Plates were incubated for 19-20 hours. A mixture of RBD and the AlphaScreen streptavidin donor and glutathione acceptor beads diluted in 25 mM Hepes, pH 7.4, 150 mM NaCl, 5 mM MgCl2, 0.01% TritonX-100 and 2% DMSO was then added at 10 ul/well and incubated for 60-90 minutes before the samples were read for emission at 570 nm after excitation of the donor beads at 680 nm. All incubations were performed at room temperature. […] IC50s were determined using nonlinear regression fit of [inhibitor]vs. response (4 parameters). […]
(In general: In Alpha technology, singlet oxygen from a donor bead excites a nearby acceptor bead.)
As to `CCOC/C=C/S(=O)(=O)CCN(C)c1nc(OCC23CCCN2CCC3)nc2c1CCN(c1cccc3cccc(Cl)c13)C2`, the IC50 was greater than 500 nM. For `C=CC(=O)CN(C)c1nc(OC[C@@H]2CCCN2C)nc2c1CCN(c1cccc3ccccc13)C2`, the IC50 is 100 to 500 nM.

For the compound `COC/C=C/C(=O)N1CC[C@@H](N(C)c2nc(OCC34CCCN3CCC4)nc3c2CCN(c2cccc4cccc(Cl)c24)C3)C1`, the 50% inhibitory concentration (IC50) was 100 to 500 nM. Consider `CC(C)C/C=C/S(=O)(=O)CCN(C)c1nc(OCC23CCCN2CCC3)nc2c1CCN(c1cccc3cccc(Cl)c13)C2`, for which the IC50 was greater than 500 nM. In the case of `C=CC(=O)N1CC(CN(C)c2nc(OCC34CCCN3CCC4)nc3c2CCN(c2cccc4cccc(Cl)c24)C3)C1` it was 100 to 500 nM; in that of `C=CC(=O)CCN(C)c1nc(OC[C@@H]2CCCN2C)nc2c1CCN(c1cccc3ccccc13)C2`, greater than 500 nM. In the case of `C=CC(=O)N1CC(CN(C)c2nc(OC[C@@]34CCCN3C[C@H](F)C4)nc3c2CCN(c2cccc4cccc(Cl)c24)C3)C1` it was 100 to 500 nM. In the case of `CN(c1nc(OCC23CCCN2CCC3)nc2c(F)c(-c3cccc4cccc(Cl)c34)ncc12)[C@@H]1CCN(C(=O)/C=C/c2cnccn2)C1` it was greater than 500 nM. For `C=CC(=O)N1CC[C@@H](Nc2nc(OC[C@@]34CCCN3C[C@H](F)C4)nc3c2CCN(c2cccc4cccc(Cl)c24)C3)C1`, the IC50 is greater than 500 nM. Next, `C=CC(=O)N1CC(CNc2nc(OC[C@@]34CCCN3C[C@H](F)C4)nc3c2CCN(c2cccc4cccc(Cl)c24)C3)C1`: greater than 500 nM. Next, `C=CS(=O)(=O)CCN(C)c1nc(OC[C@@H]2CCCN2C)nc2c1CCN(c1cccc3ccc(F)c(Cl)c13)C2`: 100 to 500 nM; `CN(c1nc(OC[C@@]23CCCN2C[C@H](F)C3)nc2c1CCN(c1cccc3cccc(Cl)c13)C2)[C@@H]1CCN(C(=O)/C=C/c2ncn(C)n2)C1`: greater than 500 nM; `C=CC(=O)N1CC(CN(C)c2nc(OC[C@@]34CCCN3C[C@H](O)C4)nc3c(F)c(-c4cccc5cccc(Cl)c45)ncc23)C1`: greater than 500 nM. Next, `CN(c1nc(OC[C@@]23CCCN2C[C@H](F)C3)nc2c(F)c(-c3cccc4ccc(F)c(Cl)c34)ncc12)[C@@H]1CCN(C(=O)/C=C/C2CNC2)C1`: 100 to 500 nM; `C=CC(=O)N1C[C@H](N(C)c2nc(OC[C@@]34CCCN3C[C@H](F)C4)nc3c2CCN(c2cccc4cccc(Cl)c24)C3)C[C@H]1CC#N`: 100 to 500 nM.

As to `C=CC(=O)N1C[C@@H](F)[C@@H](N(C)c2nc(OC[C@@]34CCCN3C[C@H](F)C4)nc3c(F)c(-c4cccc5cccc(Cl)c45)ncc23)C1`, the IC50 is greater than 500 nM. Next, `C=CC(=O)N1CC[C@@H](N(C)c2nc(OC[C@@]34CCCN3C[C@H](F)C4)nc3c(F)c(-c4cc(OC(F)F)cc5ccccc45)ncc23)C1`: greater than 500 nM; `CN(c1nc(OCC23CCCN2CCC3)nc2c(F)c(-c3cccc4cccc(Cl)c34)ncc12)[C@@H]1CCN(C(=O)/C=C/c2nnn(C)n2)C1`: greater than 500 nM. In the case of `C=CC(=O)N1CC[C@@H](N(C)c2nc(OC[C@@]34CCCN3C[C@H](F)C4)nc3c(F)c(-c4cc(C(F)F)cc5ccccc45)ncc23)C1`, the IC50 is greater than 500 nM. In the case of `C=CC(=O)N1C[C@@H](F)[C@H](N(C)c2nc(OC[C@@]34CCCN3C[C@H](F)C4)nc3c(F)c(-c4cccc5cccc(Cl)c45)ncc23)C1` it was greater than 500 nM; in that of `CN(c1nc(OC[C@@]23CCCN2C[C@H](F)C3)nc2c(F)c(-c3cccc4cccc(Cl)c34)ncc12)[C@@H]1CCN(C(=O)/C=C/c2ccncn2)C1`, greater than 500 nM.

For `CN(c1nc(OC[C@@]23CCCN2C[C@H](F)C3)nc2c1CCN(c1cccc3cccc(Cl)c13)C2)[C@@H]1CCN(C(=O)/C=C/c2ccncn2)C1`, the IC50 is greater than 500 nM.

As for `Cc1nsc(/C=C/C(=O)N2C[C@@H](F)[C@H](N(C)c3nc(OC[C@@]45CCCN4C[C@H](F)C5)nc4c(F)c(-c5cccc6cccc(Cl)c56)ncc34)C2)n1`, the IC50 was greater than 500 nM. Next, `Cc1nccc(/C=C/C(=O)N2C[C@@H](F)[C@H](N(C)c3nc(OC[C@@]45CCCN4C[C@H](F)C5)nc4c(F)c(-c5cccc6cccc(Cl)c56)ncc34)C2)n1`: greater than 500 nM. Take `CN(c1nc(OC[C@@]23CCCN2C[C@H](F)C3)nc2c(F)c(-c3cccc4cccc(Cl)c34)ncc12)[C@@H]1CCN(C(=O)/C=C/c2ncc(F)cn2)C1`: the IC50 is greater than 500 nM. For `CN(c1nc(OC[C@@]23CCCN2C[C@H](F)C3)nc2c(F)c(-c3cccc4cccc(Cl)c34)ncc12)[C@@H]1CCN(C(=O)/C=C/CN2CCCS2(=O)=O)C1`, the IC50 was in the range of 100 to 500 nM.

In the case of `C=CC(=O)N1C[C@@H](O)[C@@H](Nc2nc(OC[C@@]34CCCN3C[C@H](F)C4)nc3c(F)c(-c4cccc5cccc(Cl)c45)ncc23)C1`, the IC50 was greater than 500 nM. As to `C=CC(=O)N1C[C@H](Nc2nc(OC[C@@]34CCCN3C[C@H](F)C4)nc3c(F)c(-c4cccc5cccc(Cl)c45)ncc23)[C@@H](C)C1`, the half-inhibitory concentration (IC50) is greater than 500 nM. Next, `Cc1nccc(/C=C/C(=O)N2CC3CC(C2)N3c2nc(OC[C@@]34CCCN3C[C@H](F)C4)nc3c(F)c(-c4cccc5cccc(Cl)c45)ncc23)n1`: greater than 500 nM; `Cc1nccc(/C=C/C(=O)N2C3CC2CN(c2nc(OC[C@@]45CCCN4C[C@H](F)C5)nc4c(F)c(-c5cccc6cccc(Cl)c56)ncc24)C3)n1`: greater than 500 nM; `CN(C)C/C=C/C(=O)N1CCC(N(C)c2nc(OC[C@@H]3CCCN3C)nc3c2CCN(c2cccc4cccc(Cl)c24)C3)C1` (stereo partly drawn): 100 to 500 nM. For `CC(C)c1noc(/C=C/C(=O)N2CC3CC(C2)N3c2nc(OC[C@@]34CCCN3C[C@H](F)C4)nc3c(F)c(-c4cccc5cccc(Cl)c45)ncc23)n1`, the IC50 was greater than 500 nM.

Take `CC(C)c1noc(/C=C/C(=O)N2C3CC2CN(c2nc(OC[C@@]45CCCN4C[C@H](F)C5)nc4c(F)c(-c5cccc6cccc(Cl)c56)ncc24)C3)n1`: the IC50 was greater than 500 nM. For `Cc1nccc(/C=C/C(=O)N2C[C@H]3C[C@@H]2CN3c2nc(OC[C@@]34CCCN3C[C@H](F)C4)nc3c(F)c(-c4cccc5cccc(Cl)c45)ncc23)n1`, the IC50 was greater than 500 nM.

For the compound `CC(C)c1noc(/C=C/C(=O)N2C[C@H]3C[C@@H]2CN3c2nc(OC[C@@]34CCCN3C[C@H](F)C4)nc3c(F)c(-c4cccc5cccc(Cl)c45)ncc23)n1`, the IC50 is greater than 500 nM. In the case of `Cc1nccc(/C=C/C(=O)N2CCC[C@H](Nc3nc(OC[C@@]45CCCN4C[C@H](F)C5)nc4c(F)c(-c5cccc6cccc(Cl)c56)ncc34)C2)n1` it was greater than 500 nM. On to `CN(CC1(C)CN(C#N)C1)c1nc(OC[C@@H]2CCCN2C)nc2c1CCN(c1cccc3cccc(Cl)c13)C2`, for which the 50% inhibitory concentration (IC50) was greater than 500 nM. In the case of `Cc1nccc(/C=C/C(=O)N2CC3(C2)CN(c2nc(OC[C@@]45CCCN4C[C@H](F)C5)nc4c(F)c(-c5cccc6cccc(Cl)c56)ncc24)C3)n1` it was greater than 500 nM. In the case of `Cc1nccc(/C=C/C(=O)N2CC3(CCN(c4nc(OC[C@@]56CCCN5C[C@H](F)C6)nc5c(F)c(-c6cccc7cccc(Cl)c67)ncc45)C3)C2)n1` it was greater than 500 nM; in that of `C=CC(=O)N1CC[C@@H](N(C)c2nc(OC[C@@]34CCCN3C[C@H](F)C4)nc3c(F)c(-c4cccc5c(Cl)cc(F)cc45)ncc23)C1`, greater than 500 nM; in that of `Cc1nccc(/C=C/C(=O)N2CCC(N(C)c3nc(OC[C@@]45CCCN4C[C@H](F)C5)nc4c(F)c(-c5cccc6cccc(Cl)c56)ncc34)CC2)n1`, greater than 500 nM.

As for `Cc1nccc(/C=C/C(=O)N2CCC3(C2)CN(c2nc(OC[C@@]45CCCN4C[C@H](F)C5)nc4c(F)c(-c5cccc6cccc(Cl)c56)ncc24)C3)n1`, the IC50 was greater than 500 nM. With `Cc1nccc(/C=C/C(=O)N2CCC23CN(c2nc(OC[C@@]45CCCN4C[C@H](F)C5)nc4c(F)c(-c5cccc6cccc(Cl)c56)ncc24)C3)n1`, the half-maximal inhibitory concentration (IC50) is greater than 500 nM.

Regarding `C=CC(=O)N1CC[C@@H](N(CC(F)(F)F)c2nc(OC[C@@]34CCCN3C[C@H](F)C4)nc3c(F)c(-c4cccc5cccc(Cl)c45)ncc23)C1`, the IC50 was greater than 500 nM. Next, `C=CS(=O)(=O)CCN(C)c1nc(OC[C@@H]2CCCN2C)nc2c(F)c(-c3cccc4cccc(Cl)c34)ncc12`: 100 to 500 nM; `Cc1nccc(/C=C/C(=O)N2CCCN(c3nc(OC[C@@]45CCCN4C[C@H](F)C5)nc4c(F)c(-c5cccc6cccc(Cl)c56)ncc34)CC2)n1`: greater than 500 nM. Next, `CN1CCC1/C=C/C(=O)N1CCCN(c2nc(OC[C@@]34CCCN3C[C@H](F)C4)nc3c(F)c(-c4cccc5cccc(Cl)c45)ncc23)CC1` (stereo partly drawn): greater than 500 nM; `O=C(/C=C/CN1CCOCC1)N1CCCN(c2nc(OC[C@@]34CCCN3C[C@H](F)C4)nc3c(F)c(-c4cccc5cccc(Cl)c45)ncc23)CC1`: greater than 500 nM. Turning to `C=CC(=O)N1C[C@@H](C)[C@@H](N(C)c2nc(OC[C@@]34CCCN3C[C@H](F)C4)nc3c(F)c(-c4cccc5cccc(Cl)c45)ncc23)C1`, the IC50 was greater than 500 nM. With `C=CS(=O)(=O)[C@H]1C[C@H](N(C)c2nc(OCC34CCCN3CCC4)nc3c2CCN(c2cccc4cccc(Cl)c24)C3)C1`, the concentration for half-maximal inhibition (IC50) fell in the range of 100 to 500 nM. For the compound `C=CC(=O)N1CC[C@@H](N(C)c2nc(OC[C@@]34CCCN3C[C@H](F)C4)nc3c(F)c(-c4cccc5c(C)c(F)ccc45)ncc23)C1`, the IC50 is greater than 500 nM.

In the case of `Cc1nccc(/C=C/C(=O)N2C[C@@H]3CN(c4nc(OC[C@@]56CCCN5C[C@H](F)C6)nc5c(F)c(-c6cccc7cccc(Cl)c67)ncc45)C[C@@H]3C2)n1`, the IC50 was greater than 500 nM.

For the compound `O=C(/C=C/CN1CCOCC1)N1CC2(CCN(c3nc(OC[C@@]45CCCN4C[C@H](F)C5)nc4c(F)c(-c5cccc6cccc(Cl)c56)ncc34)C2)C1`, the IC50 was greater than 500 nM. Regarding `O=C(/C=C/CN1CCOCC1)N1CC2(C1)CN(c1nc(OC[C@@]34CCCN3C[C@H](F)C4)nc3c(F)c(-c4cccc5cccc(Cl)c45)ncc13)C2`, the IC50 is greater than 500 nM.
